Experimental data published in ChEMBL document CHEMBL1128917, “1-O-, 2-O- and 3-O--glycosyl-sn-glycerols: Structure - anti-tumor-promoting activity relationship” (1996).

Key:
Type in all cases: functional, Homo sapiens
Raji [1] = assay: Tested in vitro for inhibitory activity against TPA induced Epstein-Barr virus antigen activation in Raji cells (100 mol) for positive control
Raji [2] = assay: Tested in vitro for inhibitory activity against TPA induced Epstein-Barr virus antigen activation in Raji cells (10 mol) for positive control
Raji [3] = assay: Tested in vitro for inhibitory activity against TPA induced Epstein-Barr virus antigen activation in Raji cells (1000 mol) for positive control
Raji [4] = assay: Tested in vitro for inhibitory activity against TPA induced Epstein-Barr virus antigen activation in Raji cells (500 mol) for positive control
Raji [5] = assay: Tested in vitro for inhibitory activity against TPA induced Epstein-Barr virus antigen activation in Raji cells (1000 mol) for viability

Row | SMILES | EBV antigen activation, % of positive control (Raji [1]) [%] | EBV antigen activation, % of positive control (Raji [2]) [%] | EBV antigen activation, % of positive control (Raji [3]) [%] | EBV-EA activation (% of positive control) (Raji [4]) [%] | Viability (Raji [5]) [%]
1 | OCC(CO)O[C@@H]1O[C@@H](CO)[C@H](O)[C@H](O)[C@@H]1O (stereo in doubt; form 2) | 88.1 | 100 | 0 | 17.5 | 80
2 | CC(=O)OCC(CO)O[C@@H]1O[C@@H](CO)[C@@H](O)[C@H](O)[C@@H]1O (stereo in doubt; form 2) | 77.3 | 100 | 0 | 36.6 | 70
3 | OCC(O)CO[C@@H]1O[C@@H](CO)[C@H](O)[C@H](O)[C@@H]1O (stereo in doubt; form 1) | 58.2 | 79.1 | – | 16.5 | –
4 | CO[C@@H]1O[C@H](CO)[C@H](O)[C@H](O)[C@H]1O | 76.5 | 93.7 | 20.3 | 43.9 | 80
5 | OCC(O)CO[C@@H]1O[C@@H](CO)[C@@H](O)[C@H](O)[C@@H]1O (stereo in doubt; form 2) | 68.9 | 90.4 | – | 27.4 | –
6 | OCC(O)CO[C@@H]1O[C@@H](CO)[C@H](O)[C@H](O)[C@@H]1O (stereo in doubt; form 2) | 64.6 | 87.5 | 0 | 25.8 | 70
7 | OCC(O)CO[C@@H]1O[C@@H](CO)[C@@H](O)[C@H](O)[C@@H]1O (stereo in doubt; form 1) | 62.4 | 82.5 | 0 | 20.7 | 70
8 | OCC(CO)O[C@@H]1O[C@@H](CO)[C@H](O)[C@H](O)[C@@H]1O (stereo in doubt; form 1) | 81 | – | – | 45.8 | 70
9 | CC(=O)OCC(CO)O[C@@H]1O[C@@H](CO)[C@@H](O)[C@H](O)[C@@H]1O (stereo in doubt; form 1) | 71.5 | 94.7 | – | 32.9 | –
10 | CO[C@@H]1O[C@H](CO)C(O)C(O)[C@H]1O (single isomer, unassigned) | 70.7 | 100 | 22.8 | 54.1 | 70
